System: PMN isolated from a healthy donor
Assay: FACS of untreated or Thapsigargin-treated PMN for LOX-1 expression
Type: cell-based, human
Details: 1 μM Thapsigargin (THG)
Procedure: FIGS. 10A and 10B show FACS analyses of PMN cells showing the expression of LOX-1. Representative histograms of untreated or Thapsigargin (THG)-treated cells were stained after incubating with anti-LOX-1 antibody (Ab) are shown. Percentage of LOX-1^+ PMN and expression of LOX-1 in PMN isolated from a healthy donor and treated with 1 μM […] and 1 mM Dithiothreitol (DTT). Representative LOX-1 expression level with anti-LOX-1 and commercial Abs. Representative LOX-1 expression level with DMAb derived Abs. Summary of data derived from FACS analysis of LOX-1 level is expressed as the % of LOX-1^+/CD15^+.

C/C=C(/C)C(=O)O[C@H]1C(C)=C2[C@H]([C@@H]1OC(=O)CCCCCCC)[C@@](C)(OC(C)=O)C[C@H](OC(=O)CCC)[C@@]1(O)[C@H]2OC(=O)[C@@]1(C)O [THG, Thapsigargin]
percentage of LOX-1+ PMN (% of LOX-1+/CD15+): Higher percentages of PMN expressed LOX-1

Reference: patent US20220381787A1, “NOVEL LOX-1 ANTIBODY COMPOSITIONS, LOX1 NEUTRALIZATION ASSAY AND METHODS OF TREATMENT USING SAME” (The Wistar Institute of Anatomy and Biology, priority 2019, published 2022)
